We go through 71 sequences from the OligoGym collection.

“And” between values parts separate entries of the source, which are not always exact repeats. Identical values can stand only once. After the bases stand the sugars from the 5' end (letter, count) and the backbone: PS all phosphorothioate, else s phosphorothioate and o phosphodiester by linkage. Methylation of C is not given here. k = constrained ethyl (cEt); d = 2'-deoxy (DNA)

The data set has as its target MALAT1. The settings on record: ASO, A431, 0.005 µM.
In the case of CCCAAATTAATGCACT (sugars k3 d10 k3, PS), the target mRNA inhibition was 51% and 42%.
Then CCCACCAAAGACCTCG (sugars k3 d10 k3, PS), with 31%; and CCCACCCTCTAAGAGA (sugars k3 d10 k3, PS), with -4%.
Then CCCAGTTTGTCAATAG (sugars k3 d10 k3, PS), with 39%.
With CCCATAATTGTAGTTA (sugars k3 d10 k3, PS) the figure was 45%.
For CCCCAACTGCTTGCAG (sugars k3 d10 k3, PS), the target mRNA inhibition was found to be 13%.
As to CCCCAATCAAGATTTT (sugars k3 d10 k3, PS), the target mRNA inhibition is -21%.
Then CCCCACGGCCCGCACG (sugars k3 d10 k3, PS), with -9%; and CCCCAGTCCTTTACAG (sugars k3 d10 k3, PS), with 9%.
With CCCCATATAAATCCCT (sugars k3 d10 k3, PS) the figure was -7%; with CCCCCATTATATTAGA (sugars k3 d10 k3, PS), 28%.
Turning to CCCCCCCAAGATTGCC (sugars k3 d10 k3, PS), the target mRNA inhibition is -16%.
Then CCCCCCGCCTCAGTTA (sugars k3 d10 k3, PS), with -7%.
Then CCCCCGCCTCAGTTAC (sugars k3 d10 k3, PS), with 28%.
With CCCGCCTGAGCCCCGG (sugars k3 d10 k3, PS) the figure was -2%; with CCCGGAAATCGGCCTA (sugars k3 d10 k3, PS), 0%; with CCCTATATAAGGTCAA (sugars k3 d10 k3, PS), 13%.
Regarding CCCTCCCCTTTAATAA (sugars k3 d10 k3, PS), the target mRNA inhibition was -17%.
With CCGCCTCTTAAAGCAC (sugars k3 d10 k3, PS) the figure was -9%.
Then CCGCCTGAGCCCCGGG (sugars k3 d10 k3, PS), with -9%.
Then CCGCTAAGATGCTAGC (sugars k3 d10 k3, PS), with 20%; and CCGGAAATCGGCCTAC (sugars k3 d10 k3, PS), with 20%.
As to CCGTTTTTCAGCTTCC (sugars k3 d10 k3, PS), the target mRNA inhibition came to 6%.
On to CCTAGCTTCCTTCACC (sugars k3 d10 k3, PS), for which the target mRNA inhibition turned out to be 17%.
Then CCTCTAAGAGACATTC (sugars k3 d10 k3, PS), with 29%; and CCTGAAAAAGTCTTAG (sugars k3 d10 k3, PS), with 28%.
With CCTGGGTCAGCTGTCA (sugars k3 d10 k3, PS) the figure was 51%; with CCTGTTAAGACCATCC (sugars k3 d10 k3, PS), 40%; with CCTTAAAGTTACATTC (sugars k3 d10 k3, PS), 33%.
For CCTTAGGATAATAGCG (sugars k3 d10 k3, PS), the target mRNA inhibition was 60% and 51%.
Then CCTTCCCTATATAAGG (sugars k3 d10 k3, PS), with -41%; and CCTTCTATTGGTATTA (sugars k3 d10 k3, PS), with 28%.
As to CCTTGAAACCGATTAT (sugars k3 d10 k3, PS), the target mRNA inhibition is 36%.
With CGAACTGCTGCTTGCT (sugars k3 d10 k3, PS) the figure was 40%.
Consider CGAAGAGATACCTGTC (sugars k3 d10 k3, PS), for which the target mRNA inhibition was determined as 23%.
With CGCACGGAAATTTTTC (sugars k3 d10 k3, PS) the figure was -17%; with CGCCAGCCCCCCACGG (sugars k3 d10 k3, PS), -45%; with CGCCGCAGGGATTTGA (sugars k3 d10 k3, PS), 19%.
With CGCTTTGTTGTCTCTC (sugars k3 d10 k3, PS) the figure was 87% and 99%.
CGCTTTTATTCTGCTT (sugars k3 d10 k3, PS): the target mRNA inhibition is 6%.
With CGGAAATCGGCCTACG (sugars k3 d10 k3, PS) the figure was 30%; with CGGATTTTTACCAACC (sugars k3 d10 k3, PS), 38%.
Then CGGCCCGCACGGAAAT (sugars k3 d10 k3, PS), with 24%; and CGTAACAGGCCACTGC (sugars k3 d10 k3, PS), with 2%.
With CGTGAAAACCCACTCT (sugars k3 d10 k3, PS) the figure was -6%; with CGTGAGAACTGCTCTA (sugars k3 d10 k3, PS), 37%.
CGTGTGGAAAGATTTG (sugars k3 d10 k3, PS): the target mRNA inhibition came to 0%.
For the sequence CGTTACGAAAGTCCTT (sugars k3 d10 k3, PS), the target mRNA inhibition was 25%.
With CTAAATACCACCACCT (sugars k3 d10 k3, PS) the figure was 12%; with CTAAGATAGCAGCACA (sugars k3 d10 k3, PS), 11%; with CTAAGATTGTAAGCAT (sugars k3 d10 k3, PS), 28%.
Then CTAAGCAATATCTTAG (sugars k3 d10 k3, PS), with 15%.
CTACACAATTTACATC (sugars k3 d10 k3, PS): the target mRNA inhibition came out at 22%.
Then CTACATTTACAAAACG (sugars k3 d10 k3, PS), with 29%.
With CTACTGAAGAGCATTG (sugars k3 d10 k3, PS) the figure was 22%; with CTACTTTAAGCCTTCG (sugars k3 d10 k3, PS), 31%.
With CTAGGGAAAAGTGGTT (sugars k3 d10 k3, PS) the figure was -22%.
For CTATCTTCACCACGAA (sugars k3 d10 k3, PS), the target mRNA inhibition amounted to 40%.
Then CTCAAAGTCCAATGCA (sugars k3 d10 k3, PS), with 48%.
Then CTCAGTACGAAACTCC (sugars k3 d10 k3, PS), with 30%.
With CTCCAATACTTGTCTT (sugars k3 d10 k3, PS) the figure was 54% and 44%; with CTCCAATGGACATCTC (sugars k3 d10 k3, PS), 29%.
On to CTCCCCTTCAAGCACC (sugars k3 d10 k3, PS), for which the target mRNA inhibition amounted to 4%.
With CTCGCATCACCGGAAT (sugars k3 d10 k3, PS) the figure was -14%; with CTCGCCTCCTCCGTGT (sugars k3 d10 k3, PS), 10%.
As for CTCGCTTTCCCTGTGG (sugars k3 d10 k3, PS), the target mRNA inhibition is 17%.
Take CTCTAAGAGACATTCA (sugars k3 d10 k3, PS): the target mRNA inhibition turned out to be 23%.
Then CTCTATACTTTGAAGG (sugars k3 d10 k3, PS), with 20%; and CTCTCATTTATTTCGG (sugars k3 d10 k3, PS), with 59% and 84%.
With CTCTGCAGTTTCTATA (sugars k3 d10 k3, PS) the figure was 31%.
As to CTCTTGAGGGACAGTA (sugars k3 d10 k3, PS), the target mRNA inhibition amounted to 4%.
